Results from patent US8486965B2, “Pyrrolo[2,3-b]pyridine derivative and use thereof for treatment of cancer” (Takeda Pharmaceutical Company Limited, priority 2009, dated 2013).

Tests used:
[1] = system: Hedgehog signal transduction system (Smo); experiment: Gli reporter luciferase assay in NIH-3T3/Gli reporter cells stimulated with mouse Shh-N end fragment; assay type: cell-based; settings: NIH3T3; 1 μM compound; NIH-3T3/Gli reporter cells with mouse Shh-N end fragment culture supernatant, 48 hr; luciferase activity, control without compound as 100; read-out: inhibition rate (%) at 1 μM
Procedure, shortened: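 NIH-3T3 cells stably carrying a luciferase reporter driven by 8× Gli-binding sites and chicken δ-crystalline promoter, plated at 1×10^4 cells/well and cultured overnight at 37° C in 10% FBS D-MEM. Compound added with recombinant mouse Shh-N fragment (aa 1–198, HEK293-expressed) to induce signaling; luciferase read-out.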

mouse medulloblastoma = experiment: In vivo anti-tumor test, mouse medulloblastoma allogeneic transplantation model; settings: 1 mg/kg, orally once a day for 2 weeks; subcutaneous medulloblastoma in nude mouse; at the end of the test; p < 0.025 (Dunnett's test)
Protocol: According to the description in Sasaki, K. et al., (2006) Cancer Res. 66: 4215-4222, an anti-tumor effect of a compound was evaluated using a mouse medulloblastoma allogeneic transplantation model. To be precise, Patched 1 gene mutant mouse (lineage name: Ptch1tm1Mps/J) was purchased from The Jackson Laboratory and p53 gene mutant mouse (lineage name: P53N4-M, Nomenclature: B6.129-Trp53tm/BrdN4) was purchased from Taconic, and a mouse of Patched 1(+/−), p53(−/−) phenotype was prepared by mating. […]
An anti-tumor test was performed using a tumor passaged by subcutaneous transplantation. […] The tumor diameter after transplantation was measured and, when the tumor size reached 150-250 mm^3, the anti-tumor test was started using 5 mice per group.
The test compound was prepared to achieve a dose of 1 mg/kg with a 0.5% methylcellulose (Shin-Etsu Chemical Co., Ltd., Cat. No. SM-100) suspension, and orally administered once a day for 2 weeks. The tumor size was calculated based on the longer diameter and shorter diameter of the tumor measured with an electron vernier caliper. After the start of the test, the tumor size was measured every 2 or 3 days and the growth rate of the tumor size was calculated. […]

Row | SMILES | inhibition at 1 µM [1] [%] | T/C (%) (growth rate of the tumor size) (mouse medulloblastoma)
1 | CCc1nc2c(cc1NC(=O)c1ccccc1)c(OC(C)C)c(C(=O)NC1CCN(C(=O)CO)CC1)n2C [Example 46, 6-ethyl-N-[1-(hydroxyacetyl)piperidin-4-yl]-1-methyl-3-(1-methylethoxy)-5-[(phenylcarbonyl)amino]-1H-pyrrolo[2,3-b]pyridine-2-carboxamide] | 98 | 51
2 | CCc1cc2sc(C(=O)NC3CCN(C(=O)CO)CC3)c(OC(C)C)c2cc1NC(=O)c1ccc(F)cc1 [Example 154, 6-ethyl-5-{[(4-fluorophenyl)carbonyl]amino}-N-[1-(hydroxyacetyl)piperidin-4-yl]-3-(1-methylethoxy)-1-benzothiophene-2-carboxamide] | 97 | 
3 | CCc1nc2c(cc1NC(=O)c1ccccc1)c(OCC(F)(F)F)c(C(=O)N[C@H]1CC[C@H](O)CC1)n2C [Example 37, 6-ethyl-N-(trans-4-hydroxycyclohexyl)-1-methyl-5-[(phenylcarbonyl)amino]-3-(2,2,2-trifluoroethoxy)-1H-pyrrolo[2,3-b]pyridine-2-carboxamide] | 87 | 
4 | CCc1nc2c(cc1NC(=O)c1ccc(F)cc1)c(OC(C)C)c(C(=O)NC1CCN(C(=O)CO)CC1)n2C [Example 33, 6-ethyl-5-{[(4-fluorophenyl)carbonyl]amino}-N-[1-(hydroxyacetyl)piperidin-4-yl]-1-methyl-3-(1-methylethoxy)-1H-pyrrolo[2,3-b]pyridine-2-carboxamide] | 95 | 
5 | CCc1cc2c(nc1NC(=O)c1cccs1)c(OC(C)C)c(C(=O)NC1CCN(C(=O)CO)CC1)n2C [Example 133, 6-ethyl-N-[1-(hydroxyacetyl)piperidin-4-yl]-1-methyl-3-(1-methylethoxy)-5-[(thiophen-2-ylcarbonyl)amino]-1H-pyrrolo[3,2-b]pyridine-2-carboxamide] | 90 | 
